Test results as given in US20140171433A1, “MULTIPLE MYELOMA TREATMENT” (YM Biosciences Australia Pty Ltd, priority 2011, published 2014).
Entries after “also recorded” stand apart in the source; their conditions may differ. Where two headings read alike, the source gives them in different places.

Tests used:
Ras/MAPK = details: cited from earlier work; for IL-6 induced activation of Ras/MAPK: refs [20, 22]
AKT = details: PTEN mutated OPM2 MM cells, ref [30]; cited from earlier work
Cyclin D2 = details: two HMCL, ref [22]; cited from earlier work
p-STAT3 (pY705) [1] = test: IL-6 induced STAT3 phosphorylation in HMCL (intracellular FACS, western blot); format: cell-based, human
Protocol: HMCL were treated with CYT387 (1 or 2 μM) for 60 minutes and then stimulated with 10 ng/ml IL-6 for 15 minutes. Protein lysates of CYT387 treated and untreated HMCL were made with RIPA Buffer (50 mM Tris.HCl pH 7.4, 150 mM NaCl, 1 mM PMSF, 1 mM EDTA, 5 μg/ml Aprotinin, 5 μg/ml Leupeptin, 1% Triton X-100, 1% Sodium deoxycholate and 0.1% SDS). Briefly cells were incubated in RIPA buffer on ice for 30-60 minutes before being centrifuged at 16,100×g for 20 minutes at 4° C. and the supernatant collected. Protein concentration was quantified using DC Protein Assay (Bio-Rad) as per manufacturer's instructions. Subsequently, 100 μg of each protein lysate was separated by 10% SDS-PAGE and blotted onto nitrocellulose (Hybond ECL, Amersham) using the Bio-Rad semi-dry transfer system. Membranes were blocked with 5% skim milk powder 0.1% Tween-20/PBS for 60 minutes then incubated with mouse monoclonal antiphospho-STAT3 (pY705, Santa Cruz), mouse monoclonal anti-STAT3 (Santa Cruz) or mouse monoclonal anti-a-tubulin (Sigma-Aldrich) for 1-2 hours at room temperature or overnight at 4° C. The blots were washed three times for 15 minutes in 0.1% Tween-20/PBS, then incubated with secondary HRP lagged antibody (swine anti-rabbit Ig HRP (Dako) or rabbit anti-mouse Ig HRP (Dako)) for 1-2 hours at room temperature before washing as above. […]

p-STAT3 (pY705) [2] = test: STAT3 phosphorylation in HMCL in coculture with bone marrow stromal cells (HS5 or primary BMSC); format: cell-based, human; details: 15 minutes coculture with BMSC (with or without contact), co-treatment with 2 μM CYT387
Protocol: (§1) Activation of the JAK/STAT, PI3K/AKT and Ras/MAPK pathways was investigated using intracellular flow cytometry to measure the phosphorylation of STAT3 at tyrosine 705 (p-STAT3), AKT at serine 473 (p-AKT) and ERK1/2 at threonine 202 and tyrosine 204 (p-ERK). HMCL were stimulated alone with 10 ng/ml IL-6±[…] IGF-1 or stimulated in CC with HS5 stromal cells or primary BMSC with or without CYT387 treatment. For CC HS5 and primary BMSC were seeded into a 24 well plate at 2×10^5 cells/ml and allowed to establish for 4 hours, after which HMCL prestained with CD38 or CD138 FITC (BD) were added. MM cells were stimulated alone (10 ng/ml IL-6 or 5 ng/ml IL-6 and 100 ng/ml IGF-1), or in CC (direct CC with stroma or transwell (TW) CC with stroma) with or without either 60 minutes of CYT387 pretreatment or 15 minutes CYT387 co-treatment. After stimulation±treatment, MM cells were harvested and fixed with 2% paraformaldehyde for 10-30 minutes, washed then permeabilised with methanol overnight. Methanol was washed off and the cells were resuspended in p-STAT3 PE (BD), p-AKT PE (BD) or p-ERK (BD) and stained for 45-60 minutes at room temperature. Unbound antibody was washed off and the cells resuspended in 2% FBS PBS and acquired by FACS.

p-AKT (pS473) = test: IL-6 and IGF-1 induced p-AKT, intracellular FACS, OCI-MY1; format: cell-based, human; details: 2 μM CYT387 cotreatment, 15 minutes
Protocol: as §1

p-ERK1/2 (pT202/pY204) = test: IL-6 and IGF-1 induced p-ERK, intracellular FACS, U266; format: cell-based, human; details: 2 μM CYT387 cotreatment, 15 minutes
Protocol: as §1

[3] = system: HMCL (LP-1, NCI-H929, OPM2, RPMI-8226, ANBL-6, OCI-MY1, U266 and XG-1); test: MTS cell proliferation assay on a panel of 8 HMCL; format: cell-based, human
Protocol: (§2) The viability and proliferation of CYT387 treated HMCL and untreated/vehicle controls were determined using various methods as described previously. Proliferation was measured first using Celltiter 96 AQeous one solution cell proliferation assay MTS reagent (Promega) on a panel of 8 HMCL. Cells were cultured at 2.0×10^5 cell/ml in 100 μl fresh media in 96 well plates for 24, 48 and 72 hours with CYT387 (0.1-5 μM). 20 μl of MTS reagent was added for the final 4 hours of treatment and the plates were read at 490 nm using a Fluostar Optima plate reader (BMG Labtech). The viable cell numbers of a panel of 5 HMCL that were treated with CYT387 with and without IL-6 co-treatment was also measured by trypan blue staining and haemocytometer count. The HMCL NCI-H929, OCI-MY1 and U266 were then selected for further analysis. Apoptosis of CYT387 treated cells was assessed by FACS with Annexin-V and propidium iodide (PI) staining. HMCLs were treated for 24 or 72 hours with 1 or 5 μM CYT387 then harvested and washed in Annexin Buffer (0.01 HEPES, 0.14 M NaCl, 2.5 mM CaCl2, pH 7.4) and stained with Annexin-V FITC (Biosource) made up in Annexin Buffer for 30 minutes at room temperature. Unbound antibody was then washed off with Atmexin Buffer and cells were resuspended in Annexin Buffer with 62.5 ng/mi PI (Sigma-Aldrich) and analyzed by FACS.

[4] = system: HMCL (NCI-H929, OCI-MY1 and U266); test: Viable cell number by haemocytometer with and without IL-6; format: cell-based, human; details: CYT387 0.5-1 μM, 10 ng/ml IL-6, 72 hours
Protocol: as §2

NCI-H929 [5] = test: Viable cell number by haemocytometer; format: cell-based; details: Homo sapiens; NCI-H929, 1 μM, after 72 hours; read-out: inhibition of cell proliferation
Protocol: as §2

OCI-MY1 = test: Viable cell number by haemocytometer; format: cell-based; details: Homo sapiens; OCI-MY1, 0.5 μM, after 72 hours; read-out: inhibition of cell proliferation
Protocol: as §2

U266 = test: Viable cell number by haemocytometer; format: cell-based; details: Homo sapiens, U-266; U266, 1 μM, after 72 hours; read-out: inhibition of cell proliferation
Protocol: as §2

[6] = system: HMCL (NCI-H929, OCI-MY1 and U266); test: Cell cycle analysis by FACS (PI/RNase); format: cell-based, human
Protocol: (§3) The effect of CYT387 treatment on HMCL cell cycling was measured after 24 and 72 hours. CYT387 (1 or 5 μM) treated and untreated HMCL were harvested, washed in PBS and resuspended in 100 μl PBS. Cells were fixed with 1 ml of cold 70% ethanol while being vortexed. Tubes were stored at −20° C. until analysis. Once all samples were collected tubes were centrifuged at 500×g for 10 minutes, the supernatant was carefully removed and the cells washed in 5 ml PBS. After the final wash cells were resuspended 250-500 μl of PI/RNase staining buffer (BD) and incubated in the dark at room temperature for 15 minutes before being analyzed by FAGS.

NCI-H929 cells = test: Cell cycle analysis by FACS (PI/RNase); format: cell-based, human; details: after 24 and 72 hours treatment
Protocol: as §3

[7] = system: HMCL (NCIH929, OCI-MY1 and U266); test: Annexin-V/Propidium Iodide FACS apoptosis; format: cell-based, human; details: Annexin-V/PI; 3 HMCL
Protocol: as §2

NCI-H929 [8] = test: Annexin-V/Propidium Iodide FACS apoptosis; format: cell-based; details: Homo sapiens, read-out: reduction in viable cells
Protocol: as §2

[9] = system: NCI-H929, OCI-MY1 and U266; test: PI FACS dose effect and synergy (Calcusyn) in HMCL; format: cell-based, human; details: 24 and 48 hours
Protocol: For the synergy experiments HMCL were treated with CYT387 in combination with bortezomib or melphalan for 24 and 48 hours before being harvested and resuspended in FACS Buffer (0.5% HI FBS in PBS) supplemented with 62.5 ng/ml PI (Sigma-Aldrich). Cells were immediately analysed by FACS. The proportion of PI positive cells was quantitated by subtracting the background death of untreated cells. Single drug treated cells were compared to combination treated cells and synergism was calculated using Calcusyn software (Biosoft).

[10] = system: CD38+CD45− primary MM cells; test: Apoptosis (Apo 2.7) of ex-vivo primary patient MM cells, single agent and combination; format: cell-based, human; details: 24 hours, Calcusyn
Description: Primary MM samples were obtained from Bone Marrow Aspirates from relapsed and refractory MM patients following written informed consent with approval from the Alfred Hospital Research and Ethics Committee and isolated and treated as previously described. Briefly, bone marrow mononuclear cells (BMMC) were isolated with Ficoll-Paque Plus (Amersham Biosciences), washed in PBS and red blood cells were lysed with NH4Cl solution (8.29 g/L ammonium chloride, 0.037 g/L EDTA, 1 g/L potassium bicarbonate). Cells were then washed again in PBS and quantitated by haemocytometer. BMMC samples were then cultured in complete RPMI-1640 media (as above for HMCL) for 24 hours. Subsequently the BMMC were plated at 5×10^5 cells/ml and were treated with CYT387 (5-50 μM) alone or (dependant on cell numbers) in combination with bortezoniib (5-40 nM) or melphalan (50-200 μM) for 24 and/or 48 hours. Drug-induced MM specific cell apoptosis was then compared to untreated and vehicle controls by staining for CD45 FITC (BD), CD38 PerCP-Cy5.5 (BD) and Apo 2.7 PE (Immunotech) to determine apoptosis in CD45−CD38+ MM cells. Samples were subsequently analyzed by FACS. Primary bone marrow stromal cells (BMSC) were also collected from patient BMMC, cells that adhered to the flask after an initial 24 hour culture were cultured with continued selection for adherent cells over several passages. […]

[11] = CYT387 in combination with bortezomib
[12] = CYT387 in combination with melphalan

In the case of N#C/C(=C/c1ccc(O)c(O)c1)C(=O)NCc1ccccc1 [AG490], the “IL-6 induced Ras/MAPK activation” value (Ras/MAPK; in the hands of others, ref [31]) is given as “no decrease”, the “IL-6 induced activation of Ras/MAPK” value (Ras/MAPK) is given as “reduce IL-6 induced activation of Ras/MAPK” and the AKT activation (AKT) is given as “could also abrogate AKT activation”.
For Cc1cc(Nc2nc(N[C@@H](C)c3ncc(F)cn3)ncc2Cl)n[nH]1 [AZD1480], the “IL-6 induced activation of Ras/MAPK” value (Ras/MAPK) is given as “reduce IL-6 induced activation of Ras/MAPK” and the “Cyclin D2” value (Cyclin D2) is given as “inhibited Cyclin D2”.
In the case of N#CCNC(=O)c1ccc(-c2ccnc(Nc3ccc(N4CCOCC4)cc3)n2)cc1 [CYT387, N-(cyanomethyl)-4-[2-[[4-(4-morpholinyl)phenyl]amino]-4-pyrimidinyl]-benzamide], the “phosphorylation of STAT3 in IL-6 stimulated samples” value (p-STAT3 (pY705) [1]; CYT387 0.5-2 μM for 1 hour, then IL-6 for 15 minutes, NCI-H929, OCI-MY1 and U266, FACS and western blotting) was “inhibited the phosphorylation of STAT3”, the “Total STAT3 protein” value (p-STAT3 (pY705) [1]; western blot, CYT387 then IL-6 stimulation) was “unaffected” and the “amount of p-STAT3 in the HMCL” value (p-STAT3 (pY705) [2]) was “dramatically reduced the amount of p-STAT3”. For the same molecule, the “p-AKT activation after IL-6 and IGF-1 stimulation” value (p-AKT (pS473)) was “significantly reduced; also recorded: dramatic reduction”, the “IL-6 and IGF-1 induced p-ERK” value (p-ERK1/2 (pT202/pY204)) was “significantly inhibited; also recorded: significant reduction” and the “most sensitive HMCL to CYT387 treatment (MTS)” value ([3]; 72 hours) was “NCI-H929 and XG-1 were the most sensitive”. For the same molecule, the “cell proliferation response by MTS assay” value ([3]; CYT387 0.1-5 μM, 24, 48 and 72 hours, 8 HMCL) was “Six of 8 HMCL had a time and dose dependent response”, the “proliferation of HMCL in the presence of IL-6” value [4] was “able to reduce the proliferation of HMCL in culture even in the presence of IL-6” and the inhibition at 1 µM (NCI-H929 [5]) was 50%. For the same molecule, the inhibition at 0.5 µM (OCI-MY1) was 50%, the inhibition at 1 µM (U266) was 44% and the “cells in the G2/M phase of the cell cycle” value ([6]; CYT387 1-5 μM, NCI-H929, OCI-MY1 and U266) was “marked accumulation of cells in the G2/M phase”. For the same molecule, the polyploid population ([6]; CYT387 treated samples) was “additional polyploid population was found”, the “increase in cells in G2/M compared to untreated or vehicle treated control” value (NCI-H929 cells) was “more than a two fold increase” and the “proportion of apoptotic cells” value [7] was “increased proportion of apoptotic cells was detected in all 3 HMCL”. The cytotoxicity at 5 µM (NCI-H929 [8]; NCI-H929, 5 μM CYT387, 24 hours) was 21%, the cytotoxicity at 5 µM (NCI-H929 [8]; NCI-H929, 5 μM CYT387, 72 hours) was 52% and the “apoptosis (PI+ cells), dose effect curves” value ([9]; CYT387 0.5-10 μM) was “induced apoptosis in 3 HMCL in a time and dose dependent manner”. The “synergy with bortezomib (combination index, Calcusyn)” value [9, 11] was “displayed synergism; also recorded: synergistic or nearly additive in 18/24 combinations”, the “synergy with melphalan (combination index, Calcusyn)” value [9, 12] was “displayed synergism; also recorded: Synergy is seen” and the “synergy with bortezomib in primary patient cells” value [10, 11] was “synergy was also observed with bortezomib in some patients/doses”. The “synergy with melphalan in primary patient cells” value [10, 12] was “synergize with melphalan in ⅔ patients”.
